Laboratory results published in PMC10410611, “Rhenium(I) Tricarbonyl Complexes of 1,10-Phenanthroline Derivatives with Unexpectedly High Cytotoxicity” (Inorganic Chemistry, 2023).

What was measured:
ctDNA [1] = test: DNA melting; assay type: binding, calf; conditions: ctDNA 40 μM, compound 30 μM
Protocol: The DNA binding ability of complex 6 was confirmed by measuring the DNA melting temperature prior to complex binding. Briefly, 40 μM ctDNA was incubated with 30 μM of the complex at 37 °C for 15 min. Afterward, the absorbance of the solution was measured at 260 nm in each °C increment in temperature within the range from 60–97 °C. A Cary UV 300 (Agilent Technologies) was used to measure all absorbances. The experiment was programmed with a 1 °C/min temperature ramp rate from the temperature range 60–97 °C, and the holding time was 1 min. Finally, the absorbance of each experiment was normalized to 0 and 1 and further compared with the melting temperature of native ctDNA.

ctDNA [2] = system: ctDNA; set-up: method as in PMID 18467423; conditions: for ctDNA; cited from earlier work
PC3 cells [3] = test: Cytotoxicity, Resazurin assay, hypoxic conditions; assay type: cell-based, human; conditions: for IC50: PC3, hypoxic conditions (2% O2), 48 h, Resazurin, read-out: IC50 (µM) ± S.D. Hypoxia; for Hypoxia resistance factor (ratio of IC50 in hypoxia and normoxia): PC3
Source text: Initially, at least three consecutive cell passages were maintained in hypoxic conditions before starting any experiments.

PC3 cells [4] = test: Cytotoxicity, Resazurin assay, normoxic conditions; assay type: cell-based, human; conditions: for IC50: normoxic conditions (∼15% O2 level), 48 h, Resazurin, read-out: IC50 (μM) ± S.D. PC3
Protocol: (§1) The standard Resazurin assay was performed to determine the cytotoxicity of the synthesized complexes. […] After 24 h of the initial incubation period, the medium was replenished by a fresh metal complex-containing medium (100 μL/well) and incubated for an additional 48 h. Initially, the metal complex was dissolved in DMSO and the target concentration was achieved by further dilution with the medium. […] Each of the reported IC50 values is the mean of three individual experiments with standard deviation, and each concentration was assayed in sextuplicate in each successive experiment.

[5] = system: 3D multicellular PC3 cell spheroids; test: Cytotoxicity against 3D cell spheroid, AlamarBlue assay; assay type: cell-based, human; conditions: average diameter 435 μm, 72 h, normoxic, read-out: IC50 against 3D multicellular PC3 cells spheroid
Protocol: 1 × 10^4 PC3 cells were seeded in each well of a Corning 96 Well Ultra-Low Attachment Treated Spheroid Microplate. After 96 h of incubation at 37 °C in normoxic conditions, the average spheroid size observed was 435 μm. Half of the medium was replaced by an equal volume of complex-containing (two times of target concentrations) medium. After 72 h, the cell viability was measured using the AlamarBlue assay. Finally, the IC50 values were determined by using GraphPad Prism 5 software after applying four parameter fitting.

RPE-1 cells = test: Cytotoxicity, Resazurin assay, normoxic conditions; assay type: cell-based, human; conditions: normoxic conditions (∼15% O2 level), 48 h, read-out: IC50 (μM) ± S.D. RPE-1
Protocol: as §1

[6] = cited from earlier work

CC[n+]1c(-c2ccccc2)c2cc(N)ccc2c2ccc(N)cc21 [EB, ethidium bromide, reference compound]
shift of ctDNA melting temperature (ΔTm) (ctDNA [1]): 4 ± 0.1 °C
binding constant of EB (KEB) (ctDNA [2]): 1 × 10^7 M^–1

Nc1n[n+]([O-])c2ccccc2[n+]1[O-] [Tirapazamine, tirapazamine, reference compound]
IC50 (PC3 cells [3]; Homo sapiens, PC-3): 20.4 ± 3 µM
Hypoxia resistance factor (ratio of IC50 in hypoxia and normoxia) (PC3 cells [3]): 0.2
IC50 (PC3 cells [4]; Homo sapiens, PC-3): ~100 µM
cell killing in comparison to the control (PC3 cells [4]; PC3, normoxia, maximum tested concentration 100 µM): around 50%

N.N.[Cl][Pt][Cl] [cisplatin, reference compound]
IC50 [5]: 6.22 µM
Hypoxia resistance factor (ratio of IC50 in hypoxia and normoxia) (PC3 cells [3]): > 7
IC50 (PC3 cells [3]): > 50 µM
selectivity (ratio between IC50 against RPE-1 and IC50 against PC3 cells) (PC3 cells [4]; normoxic conditions): 5
IC50 (PC3 cells [4]): 6.9 ± 0.5 µM
IC50 (RPE-1 cells): 36 ± 4 µM

O.O=c1cccccc1[O][Re].[C-]#[O+].[C-]#[O+].[C-]#[O+] [fac-[Re(CO)3(Trop)(H2O)]]
pKa [6]: 8.96 ± 0.02
